Results published in patent US20220347187A1, “HETEROCYCLIC COMPOUNDS AS KINASE INHIBITORS” (Nuvation Bio Inc., priority 2019, published 2022).

How the values were obtained:
[1] = system: DU4475; experiment: Cancer cell proliferation assay as a single agent (cell viability); assay type: cell-based; settings: Homo sapiens, DU-4475; Table 4; Rb negative breast carcinoma; 144H treatment
Method: (§1) The effects of test compounds were studied in two breast cancer cell lines of different subtype. The cancer cells (Table 3) were harvested during the logarithmic growth period and counted. Cell concentrations were adjusted to the appropriate number with respective medium and 90 μL cell suspensions were added to 96-well plates. After cells were seeded, the plates were shaken gently to distribute cells evenly and incubated at 37° C., 5% CO2 on day 1.
(§2) Cells were treated with test compounds at 7 to 9 concentrations within a desired concentration range (e.g. 1.1 nM-10 μM) on day 2 by series diluting the test compound stock solution (10 mM in DMSO) with culture medium. Treatment duration was 144H (with a medium change at 72H) for both MCF-7 and DU4475 cells. Cell viability was assessed by Cell Titer-Glo® as recommended by Promega (Cat. No.: G7572), or by resazurin assay (Sigma Aldrich, Cat. No.: R7017) post treatment.
(§3) Cell viability data were plotted using GraphPad Prism (GraphPad Software, Inc., San Diego, Calif.). In addition, a nonlinear regression model with a sigmoidal dose response and variable slope within GraphPad Prism was used to calculate the IC50 value of individual test compounds.

[2] = system: MCF-7; experiment: as above; assay type: cell-based; settings: Homo sapiens, MCF7
Method: as §1, §2, §3

[3] = target: T1, CDK1 (cyclin B) (Homo sapiens, UniProt P06493); experiment: Z'-LYTE kinase assay; assay type: biochemical; settings: ATP 34 μM, 60 minutes
T1 construct: purchased Invitrogen Life Technologies (screening service)
T1 sequence (P06493 whole entry): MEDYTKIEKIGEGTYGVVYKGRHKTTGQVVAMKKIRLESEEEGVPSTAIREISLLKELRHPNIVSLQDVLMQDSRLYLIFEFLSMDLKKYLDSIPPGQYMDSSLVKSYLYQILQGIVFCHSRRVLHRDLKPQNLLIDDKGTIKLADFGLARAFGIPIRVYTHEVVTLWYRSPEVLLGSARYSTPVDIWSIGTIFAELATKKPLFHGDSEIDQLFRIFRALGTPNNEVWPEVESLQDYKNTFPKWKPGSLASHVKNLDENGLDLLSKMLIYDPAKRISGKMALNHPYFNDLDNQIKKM
T1 sequence (P14635 whole entry partner): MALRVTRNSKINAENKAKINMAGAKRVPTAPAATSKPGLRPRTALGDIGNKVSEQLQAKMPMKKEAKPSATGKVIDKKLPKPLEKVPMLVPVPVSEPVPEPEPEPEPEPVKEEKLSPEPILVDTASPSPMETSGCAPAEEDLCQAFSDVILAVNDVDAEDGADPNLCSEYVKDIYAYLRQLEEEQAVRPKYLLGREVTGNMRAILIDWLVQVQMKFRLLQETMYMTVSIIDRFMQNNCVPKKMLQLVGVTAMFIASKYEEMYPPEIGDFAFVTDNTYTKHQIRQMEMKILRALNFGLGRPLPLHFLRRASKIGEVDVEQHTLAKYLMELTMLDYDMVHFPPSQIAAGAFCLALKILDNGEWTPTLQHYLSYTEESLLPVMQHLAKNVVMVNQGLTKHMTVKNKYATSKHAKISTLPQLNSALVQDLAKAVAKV
Method: IC50 values of compounds against CDK1 (cyclin B) were determined by Z′-LYTE™. These screening assays were performed at Invitrogen Life Technologies (Grand Island, N.Y.) on a low volume NBS, black 384-well plate (#4514, Corning), 0.1 μL of 100× test compound in 100% DMSO (at specific solutions) was mixed with 2.4 μL of Kinase Buffer (50 mM HEPES pH 7.5, 0.01% BRIJ-35, 10 mM MgCl2, 1 mM EGTA), 5 μL of 2× Kinase (3.5-46.4 ng CDK1/cyclin B)/Peptide (2 μM Ser/Thr 18), and 2.5 μL of 4×ATP solution (34 μM). The plates were shaken for 30 seconds, and incubated for 60 minutes at room temperature. Development Reagent Solution (5 μL of 1:1024 dilution) was added to the plates followed with another 30-second plate shake, and the plates were further incubated at room temperature for one hour. The plates were read on fluorescence plate reader with Dual emission at 445 nm and 520 nm.
(§4) The following equations were used for Z′-LYTE™ Screening Assay Data Analysis. Percent inhibition (100-% activity) was fitted to the “four-parameter logistic model” in XLfit for determination of IC50 values.

[4] = target: T2, CDK2 (cyclin A) (Homo sapiens, UniProt P24941); experiment: Z'-LYTE kinase assay; assay type: biochemical; settings: ATP 31 μM, 60 minutes
T2 construct: purchased Invitrogen Life Technologies (screening service)
Method: IC50 values of compounds against CDK2 (cyclin A) were determined by Z′-LYTE™. These screening assays were performed at Invitrogen Life Technologies (Grand Island, N.Y.) on a low volume NBS, black 384-well plate (#4514. Corning), 0.1 μL of 100× test compound in 100% DMSO (at specific solutions) was mixed with 2.4 μL of Kinase Buffer (50 mM HEPES pH 7.5, 0.01% BRIJ-35, 10 mM MgCl2, 1 mM EGTA), 5 μL of 2× Kinase (1.22-10.3 ng CDK2/cyclin A)/Peptide (2 μM Ser/Thr 12), and 2.5 μL of 4×ATP solution (31 μM). The plates were shaken for 30 seconds, and incubated for 60 minutes at room temperature. Development Reagent Solution (5 μL of 1:1024 dilution) was added to the plates followed with another 30-second plate shake and the plates were further incubated at room temperature for one hour. The plates were read on fluorescence plate reader with Dual emission at 445 nm and 520 nm.
as §4

[5] = target: T3, CDK4 (Homo sapiens, UniProt P11802); experiment: In vitro kinase inhibition, luminescence (ADP-Glo) with retinoblastoma as substrate; assay type: biochemical; settings: ATP 25 μM, 2H at room temperature
T3 construct: purchased Invitrogen PR8064 A
T3 sequence (P11802 whole entry): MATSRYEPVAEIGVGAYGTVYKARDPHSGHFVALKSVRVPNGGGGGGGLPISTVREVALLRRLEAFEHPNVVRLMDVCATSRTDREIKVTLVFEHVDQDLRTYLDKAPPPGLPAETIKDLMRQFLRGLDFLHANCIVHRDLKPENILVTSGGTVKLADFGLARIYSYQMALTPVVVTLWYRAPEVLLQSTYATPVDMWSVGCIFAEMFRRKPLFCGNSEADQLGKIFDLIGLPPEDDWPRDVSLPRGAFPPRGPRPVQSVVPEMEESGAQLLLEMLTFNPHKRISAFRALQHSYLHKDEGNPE
T3 sequence (P24385 whole entry partner): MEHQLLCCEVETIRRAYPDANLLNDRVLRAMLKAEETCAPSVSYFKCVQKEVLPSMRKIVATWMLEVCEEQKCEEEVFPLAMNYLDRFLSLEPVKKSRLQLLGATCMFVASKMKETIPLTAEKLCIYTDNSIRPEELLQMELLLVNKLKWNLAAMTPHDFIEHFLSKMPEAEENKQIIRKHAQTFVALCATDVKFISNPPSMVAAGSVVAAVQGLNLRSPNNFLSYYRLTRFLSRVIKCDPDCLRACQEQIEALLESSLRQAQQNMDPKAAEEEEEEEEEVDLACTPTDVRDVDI
Method: (§5) IC50 values of compounds against CDK4 and CDK6 were determined by luminescence using retinoblastoma as substrate. Kinase assays were performed in kinase buffer (#PV6135, Invitrogen, Life Technologies Grand Island. N.Y.) where total reaction volume was […] in 96-well half area white plates (#3693, Costar). One microliter of 25× test compounds at specific concentrations (e.g., final concentration range: 0.1 nM-200 nM) was mixed with 10 μL of 2.5× kinase (5 nM, CDK4 #PR8064 A and CDK6 #PR8422B, Invitrogen) solution and 14 μL of 4× mixed solution with retinoblastoma (1 μM, #12-439, EMD Millipore. Hayward, Calif.) and ATP (25 μM, #V7038, Promega, Madison, Wis.). The plates were covered and incubated for 2H at room temperature. At the end of incubation, 25 μL of stop solution—ADP Glo reagent (#V7002. Promega) was added. After incubation for 45 min at room temperature, 50 μL of detection reagent (##V7002, Promega) was added. Readings were taken at 15 min and 45 min incubation after detection reagent was added in a Synergy Neo Plate reader (BioTek, Winooski, Vt.) at single excitation of 340 nm and Dual emission at 495 nm and 520 nm respectively. The following equations were used in the CDK4 and CDK6 assay data analysis. Percent inhibition (100-% activity) was fitted to the “four-parameter logistic model” in XLfit for determination of IC50 values.
(§6) Percent conversion of enzyme=100−{(RLUNo Drug−No enzyme*100)/RLUNo drug+Enzyme} Equation 1:
(§7) Percent conversion at each data point=100−{(RLUAverage(Drug+enzyme)*100)/RLUNo drug+Enzyme} Equation 2:
(§8) Percent Inhibition=100*(% Conversioneach data point/% ConversionEnzyme) Equation 3: […]

[6] = target: T4, CDK6 (Homo sapiens, UniProt Q00534); experiment: as above; assay type: biochemical; settings: ATP 25 μM, 2H at room temperature
T4 construct: purchased Invitrogen PR8422B
T4 sequence (Q00534 whole entry): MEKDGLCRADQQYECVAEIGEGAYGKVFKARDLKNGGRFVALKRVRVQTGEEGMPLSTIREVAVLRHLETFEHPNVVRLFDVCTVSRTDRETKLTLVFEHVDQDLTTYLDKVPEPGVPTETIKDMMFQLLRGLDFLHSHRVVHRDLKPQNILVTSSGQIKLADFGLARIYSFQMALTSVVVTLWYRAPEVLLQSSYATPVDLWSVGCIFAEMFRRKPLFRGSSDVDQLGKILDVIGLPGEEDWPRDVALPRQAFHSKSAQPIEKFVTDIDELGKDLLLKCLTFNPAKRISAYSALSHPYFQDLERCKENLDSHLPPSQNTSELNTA
T4 sequence (P24385 whole entry partner): as the sequence (P24385 whole entry partner) above
Method: as §5, §6, §7, §8

[7] = system: MCF-7-PR; experiment: Cell viability in palbociclib-resistant cell line; assay type: cell-based
Method: as §2, §3
The effects of test compound in a palbociclib-resistant cell line and a parental, non-resistant cell line were compared. The palbociclib-resistant cell line (“MCF-7-PR”) was derived from the parental, non-resistant cell line (MCF-7 breast adenocarcinoma cells) by culture of cells over a period of three months in increasing concentrations of palbociclib, starting from about 350 nM and ending at about 850 nM, the final concentration at which they were then maintained in culture. […]

[8] = target: T5, PI3Kδ (Homo sapiens, UniProt O00329); experiment: PI3Kδ kinase assay (ADP-Glo, Reaction Biology Corporation); assay type: biochemical
T5 construct: purchased Reaction Biology Corporation (service assay)
T5 sequence (O00329 whole entry): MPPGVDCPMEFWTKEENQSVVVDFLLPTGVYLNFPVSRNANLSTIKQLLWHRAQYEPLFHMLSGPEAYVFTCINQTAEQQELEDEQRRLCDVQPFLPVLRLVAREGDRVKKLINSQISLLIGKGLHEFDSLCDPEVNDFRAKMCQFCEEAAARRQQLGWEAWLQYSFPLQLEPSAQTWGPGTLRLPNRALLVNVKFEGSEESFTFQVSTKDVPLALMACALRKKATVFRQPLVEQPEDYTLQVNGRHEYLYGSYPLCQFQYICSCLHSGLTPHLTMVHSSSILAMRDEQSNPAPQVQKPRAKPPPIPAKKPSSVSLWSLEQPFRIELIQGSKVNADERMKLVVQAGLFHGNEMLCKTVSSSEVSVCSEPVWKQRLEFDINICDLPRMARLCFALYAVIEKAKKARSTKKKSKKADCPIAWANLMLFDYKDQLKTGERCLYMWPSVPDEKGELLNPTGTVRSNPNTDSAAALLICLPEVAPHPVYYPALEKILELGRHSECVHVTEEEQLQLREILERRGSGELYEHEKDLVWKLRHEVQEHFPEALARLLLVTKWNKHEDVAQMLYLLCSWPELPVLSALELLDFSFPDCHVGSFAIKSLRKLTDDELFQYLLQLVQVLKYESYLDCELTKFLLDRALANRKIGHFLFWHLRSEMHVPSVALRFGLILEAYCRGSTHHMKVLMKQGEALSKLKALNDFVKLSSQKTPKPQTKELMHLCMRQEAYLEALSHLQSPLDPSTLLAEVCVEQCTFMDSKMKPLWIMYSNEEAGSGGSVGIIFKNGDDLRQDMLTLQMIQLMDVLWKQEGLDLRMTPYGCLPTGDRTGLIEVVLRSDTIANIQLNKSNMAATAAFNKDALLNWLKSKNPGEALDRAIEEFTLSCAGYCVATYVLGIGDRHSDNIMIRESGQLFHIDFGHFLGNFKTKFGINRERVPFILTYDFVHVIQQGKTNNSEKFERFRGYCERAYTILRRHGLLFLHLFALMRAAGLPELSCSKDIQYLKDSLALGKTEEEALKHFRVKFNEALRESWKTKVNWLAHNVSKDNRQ
T5 sequence (P27986 whole entry partner): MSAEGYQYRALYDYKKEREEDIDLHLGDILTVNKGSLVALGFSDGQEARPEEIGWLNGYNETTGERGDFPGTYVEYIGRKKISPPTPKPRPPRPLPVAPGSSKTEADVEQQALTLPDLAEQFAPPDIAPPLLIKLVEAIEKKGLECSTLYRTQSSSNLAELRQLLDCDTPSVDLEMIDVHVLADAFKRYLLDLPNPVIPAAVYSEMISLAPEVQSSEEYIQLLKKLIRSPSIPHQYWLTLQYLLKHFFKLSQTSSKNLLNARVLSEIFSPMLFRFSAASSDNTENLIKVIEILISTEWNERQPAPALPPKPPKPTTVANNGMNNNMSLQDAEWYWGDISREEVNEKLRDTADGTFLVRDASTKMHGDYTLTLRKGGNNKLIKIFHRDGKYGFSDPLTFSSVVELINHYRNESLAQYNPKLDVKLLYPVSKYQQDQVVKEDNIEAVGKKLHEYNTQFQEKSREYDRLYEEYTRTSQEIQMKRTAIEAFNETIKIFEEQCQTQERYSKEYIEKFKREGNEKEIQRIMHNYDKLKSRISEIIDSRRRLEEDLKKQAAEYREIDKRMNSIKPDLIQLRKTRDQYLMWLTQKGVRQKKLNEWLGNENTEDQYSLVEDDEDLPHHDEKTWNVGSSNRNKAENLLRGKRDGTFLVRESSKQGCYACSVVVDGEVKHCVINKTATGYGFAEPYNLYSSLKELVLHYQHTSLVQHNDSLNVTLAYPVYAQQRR
Method: IC50 values of compounds against the PI3KS kinase were determined by an assay performed by Reaction Biology Corporation (Malvern, Pa.). Briefly, this assay was conducted in buffer (Tris-HCl 40 mM (pH7.5), Orthovanadate 3 mM, MgCl2 20 mM, DTT 2 mM, CHAPS 0.05%, DMSO 1%). PI3K8 kinase was added to the reaction solution and mixed gently. The test compounds in 100% DMSO (at specific solutions) were mixed with the kinase reaction mixture to achieve the final compounds at pre-defined concentrations (e.g., range—0.5 nM to 100 μM) by Acoustic technology (Echo550; nanoliter range). After incubating for 10 min at room temp, ATP was added into the reaction mixture to initiate the reaction followed by a 30-min incubation at 30° C. After quenching the reaction with ADP-Glo reagent, the plates were incubated for 40 min. The Detection Mixture was added, and the plate was incubated for an additional 30 min. At the end of incubation, luminescence was measured. For data analysis, the luminescence was converted into μM ADP production based on ADP standard curves. The nonlinear regression to obtain the standard curve and IC50 values was performed using GraphPad Prism (GraphPad Software. Inc., San Diego, Calif.).

[9] = Table 4, Rb positive breast adenocarcinoma, 144H treatment

SMILES: CC(C)N1CCOc2c(F)cc(-c3nc(Nc4ccc(N5CCNC(=O)C5)cn4)ncc3F)cc21 [Compound 85, 4-(6-((5-fluoro-4-(8-fluoro-4-isopropyl-3,4-dihydro-2H-benzo[b][1,4]oxazin-6-yl)pyrimidin-2-yl)amino)pyridin-3-yl)piperazin-2-one]
- IC50 [1]: 3610 nM
- IC50 [2, 9]: 392 nM
- IC50 [3]: 4550 nM
- IC50 [4]: 2470 nM
- IC50 [5]: 10 nM
- IC50 [6]: 26 nM

SMILES: Cc1nn(C2CCNCC2)cc1Nc1ncc(F)c(-c2cc(F)c3c(c2)N(C(C)C)CCO3)n1 [Compound 67, 5-fluoro-4-(8-fluoro-4-isopropyl-3,4-dihydro-2H-benzo[b][1,4]oxazin-6-yl)-N-(3-methyl-1-(piperidin-4-yl)-1H-pyrazol-4-yl)pyrimidin-2-amine]
- IC50 [1]: 130 nM
- IC50 [2, 9]: 80 nM
- IC50 ([2]; Table 5, parental, non-resistant cell line): 40 nM
- IC50 [3]: 94 nM
- IC50 [4]: 45 nM
- IC50 ([7]; Table 5, palbociclib-resistant cell line): 72 nM
- IC50 [5]: 16 nM
- IC50 [6]: 45 nM

SMILES: CCN1CCC(COc2ccc(Nc3ncc(F)c(-c4cc(F)c5c(c4)N(C(C)C)CCO5)n3)nc2)CC1 [Compound 3, N-(5-((1-ethylpiperidin-4-yl)methoxy)pyridin-2-yl)-5-fluoro-4-(8-fluoro-4-isopropyl-3,4-dihydro-2H-benzo[b][1,4]oxazin-6-yl)pyrimidin-2-amine]
- IC50 [1]: 655 nM
- IC50 [2, 9]: 60 nM
- IC50 [3]: 1490 nM
- IC50 [4]: 207 nM
- IC50 [8]: > 50000 nM
- IC50 [5]: 5 nM
- IC50 [6]: 6.5 nM

SMILES: CC(C)N1CCOc2c(F)cc(-c3nc(Nc4ccc(N5CCN(C)C(=O)C5)cn4)ncc3F)cc21 [Compound 86, 4-(6-((5-fluoro-4-(8-fluoro-4-isopropyl-3,4-dihydro-2H-benzo[b][1,4]oxazin-6-yl)pyrimidin-2-yl)amino)pyridin-3-yl)-1-methylpiperazin-2-one]
- IC50 [1]: 1140 nM
- IC50 [2, 9]: 160 nM
- IC50 [3]: 1480 nM
- IC50 [4]: 278 nM
- IC50 [5]: 1 nM
- IC50 [6]: 3 nM

SMILES: CC(C)N1CCOc2c(F)cc(-c3nc(Nc4cccc(N5CCCNCC5)c4)ncc3F)cc21 [Compound 1, N-(3-(1,4-diazepan-1-yl)phenyl)-5-fluoro-4-(8-fluoro-4-isopropyl-3,4-dihydro-2H-benzo[b][1,4]oxazin-6-yl)pyrimidin-2-amine]
- IC50 [1]: 285 nM
- IC50 [2, 9]: 252 nM
- IC50 [5]: 40 nM
- IC50 [6]: 53 nM

SMILES: CCN1CCC(COc2ccc(Nc3cc(-c4cc(F)c5c(c4)N(C(C)C)CCO5)c(F)cn3)nc2)CC1 [Compound 4, N-(5-((1-ethylpiperidin-4-yl)methoxy)pyridin-2-yl)-5-fluoro-4-(8-fluoro-4-isopropyl-3,4-dihydro-2H-benzo[b][1,4]oxazin-6-yl)pyridin-2-amine]
- IC50 [1]: 275 nM
- IC50 [2, 9]: 215 nM
- IC50 [3]: 200 nM
- IC50 [4]: 75 nM
- IC50 [8]: > 30200 nM
- IC50 [5]: 7 nM
- IC50 [6]: 12 nM

SMILES: CC(=O)c1c(C)c2cnc(Nc3ccc(N4CCNCC4)cn3)nc2n(C2CCCC2)c1=O [palbociclib, reference compound]
- resistance to palbociclib compared to parental MCF-7 cells, as increase in cell viability IC50 ([7]; MCF-7-PR vs MCF-7): at least 5 fold

SMILES: CC(C)N1CCOc2c(F)cc(-c3nc(NC4CCN(S(C)(=O)=O)CC4)ncc3F)cc21 [Compound 5, 5-fluoro-4-(8-fluoro-4-isopropyl-3,4-dihydro-2H-benzo[b][1,4]oxazin-6-yl)-N-(1-(methylsulfonyl)piperidin-4-yl)pyrimidin-2-amine]
- IC50 [1]: 230 nM
- IC50 [2, 9]: 525 nM
- IC50 [3]: < 1 nM
- IC50 [4]: < 1 nM
- IC50 [8]: > 36600 nM
- IC50 [5]: 2 nM
- IC50 [6]: 9 nM

SMILES: CC(C)N1CCOc2c(F)cc(-c3nc(Nc4cc(N5CCCNCC5)ccn4)ncc3F)cc21 [Compound 2, N-(4-(1,4-diazepan-1-yl)pyridin-2-yl)-5-fluoro-4-(8-fluoro-4-isopropyl-3,4-dihydro-2H-benzo[b][1,4]oxazin-6-yl)pyrimidin-2-amine]
- IC50 [1]: 1640 nM
- IC50 [2, 9]: 823 nM
- IC50 [3]: 2800 nM
- IC50 [4]: 1230 nM
- IC50 [8]: > 50000 nM
- IC50 [5]: > 200 nM
- IC50 [6]: > 200 nM
